The source made the active and inactive calls. No cut-off for these calls is given here.
Columns and labels:
[1] = system: 3T3-L1; assay: Activation of AMPK in mouse 3T3-L1 preadipocytes assessed as increase in AMPK phosphorylation at 0.1 to 15 uM by Western blot analysis; format: cell-based; conditions: filed as activator, dose 0.1-15 µM
[2] = system: Mus musculus; assay: In vivo induction of AMPK in tyloxapol-induced Kunming mouse model of hyperlipidemia assessed as increase in ACC phosphorylation in liver at 50 to 100 mg/kg, po measured after 24 hrs by Western blot analysis; format: functional, organism-based; conditions: dose 50-100 mg/kg
[3] = system: 3T3-L1; assay: Activation of AMPK in mouse 3T3-L1 preadipocytes assessed as increase in ACC phosphorylation at 0.1 to 15 uM by Western blot analysis; format: cell-based; conditions: filed as activator, dose 0.1-15 µM
[4] = system: Mus musculus; assay: Hypolipidemic activity in tyloxapol-induced Kunming mouse model of hyperlipidemia assessed as reduction in liver AST level administered orally measured after 24 hrs; format: functional, organism-based
[5] = system: Mus musculus; assay: Hypolipidemic activity in tyloxapol-induced Kunming mouse model of hyperlipidemia assessed as spleen index at 100 mg/kg, po measured after 24 hrs (reference value: 3.87 +/- 0.05); format: functional
[6] = system: Mus musculus; assay: In vivo effect on PPAR signaling in tyloxapol-induced Kunming mouse model of hyperlipidemia assessed as increase in mTOR phosphorylation in white adipose tissue administered orally measured after 24 hrs by Western blot analysis; format: functional, organism-based
[7] = system: Mus musculus; assay: Hypolipidemic activity in tyloxapol-induced Kunming mouse model of hyperlipidemia at 50 to 100 mg/kg, po measured after 24 hrs by Masson's trichrome staining based assay; format: functional, organism-based; conditions: dose 50-100 mg/kg
[8] = system: HepG2; assay: Activation of AMPK in oleic, palmitic, linoleic and arachidonic acid 29:47:18:6 (v/v)-induced human HepG2 cells assessed as increase in AMPK phosphorylation at 1 uM by Western blot analysis relative to control; conditions: filed as activator
[9] = system: Mus musculus; assay: Hypolipidemic activity in tyloxapol-induced Kunming mouse model of hyperlipidemia assessed as spleen index at 50 mg/kg, po measured after 24 hrs (reference value: 3.87 +/- 0.05); format: functional
[10] = system: HepG2; assay: Hypolipidemic activity in oleic, palmitic, linoleic and arachidonic acid 29:47:18:6 (v/v)-induced hyperlipidemia in human HepG2 cells assessed as reduction in lipid content at 20 uM by Oil Red O staining based assay relative to control; format: functional; set-up: scale not given: the % may be the effect or the level left
[11] = system: Mus musculus; assay: In vivo induction of AMPK in tyloxapol-induced Kunming mouse model of hyperlipidemia assessed as decrease in SREBP1-C expression in liver at 50 to 100 mg/kg, po measured after 24 hrs by Western blot analysis; format: functional, organism-based; conditions: dose 50-100 mg/kg
[12] = system: Mus musculus; assay: Hypolipidemic activity in tyloxapol-induced Kunming mouse model of hyperlipidemia assessed as kidney index at 100 mg/kg, po measured after 24 hrs (reference value: 11.20 +/- 0.58); format: functional
[13] = system: 3T3-L1; assay: Hypolipidemic activity in mouse 3T3-L1 preadipocytes assessed as reduction in lipid content at 15 uM by Oil Red O staining based assay relative to control; format: functional; set-up: scale not given: the % may be the effect or the level left
[14] = system: Mus musculus; assay: Hypolipidemic activity in tyloxapol-induced Kunming mouse model of hyperlipidemia assessed as reduction in lipid level in liver at 50 to 100 mg/kg, po measured after 24 hrs by Oil Red O staining based assay; format: functional, organism-based; conditions: dose 50-100 mg/kg
[15] = system: Mus musculus; assay: In vivo induction of AMPK in tyloxapol-induced Kunming mouse model of hyperlipidemia assessed as decrease in FAS expression in white adipose tissue at 50 to 100 mg/kg, po measured after 24 hrs by Western blot analysis; format: functional, organism-based; conditions: dose 50-100 mg/kg
[16] = system: Mus musculus; assay: Hypolipidemic activity in tyloxapol-induced Kunming mouse model of hyperlipidemia assessed as epididymis white adipose tissue index at 50 mg/kg, po measured after 24 hrs (reference value: 23.43 +/- 3.10); format: functional
[17] = system: Mus musculus; assay: Hypolipidemic activity in tyloxapol-induced Kunming mouse model of hyperlipidemia assessed as reduction in serum AST level administered orally measured after 24 hrs; format: functional, organism-based
[18] = system: Mus musculus; assay: Hypolipidemic activity in tyloxapol-induced Kunming mouse model of hyperlipidemia assessed as reduction in serum IL6 level at 50 to 100 mg/kg, po measured after 24 hrs; format: functional, organism-based; conditions: dose 50-100 mg/kg
[19] = system: Mus musculus; assay: In vivo induction of AMPK in tyloxapol-induced Kunming mouse model of hyperlipidemia assessed as decrease in SREBP1-C expression in white adipose tissue at 50 to 100 mg/kg, po measured after 24 hrs by Western blot analysis; format: functional, organism-based; conditions: dose 50-100 mg/kg
[20] = system: 3T3-L1; assay: Activation of AMPK in mouse 3T3-L1 matured adipocytes assessed as increase in AMPK phosphorylation at 1 uM by Western blot analysis relative to control; format: cell-based; conditions: filed as activator
[21] = system: HepG2; assay: Hypolipidemic activity in oleic, palmitic, linoleic and arachidonic acid 29:47:18:6 (v/v)-induced hyperlipidemia in human HepG2 cells assessed as reduction in lipid content by Nile Red and DAPI staining based fluorescence microscopic analysis; format: functional, cell-based
[22] = system: Mus musculus; assay: Hypolipidemic activity in tyloxapol-induced Kunming mouse model of hyperlipidemia assessed as reduction in serum lipid level at 50 to 100 mg/kg, po measured after 24 hrs by macroscopic analysis; format: functional, organism-based; conditions: dose 50-100 mg/kg
[23] = system: Mus musculus; assay: Hypolipidemic activity in tyloxapol-induced Kunming mouse model of hyperlipidemia assessed as reduction in liver ALT level administered orally measured after 24 hrs; format: functional, organism-based
[24] = system: Mus musculus; assay: In vivo effect on PPAR signaling in tyloxapol-induced Kunming mouse model of hyperlipidemia assessed as decrease in PPARbeta expression in white adipose tissue at 50 to 100 mg/kg, po measured after 24 hrs by Western blot analysis; format: functional, organism-based; conditions: dose 50-100 mg/kg
[25] = system: Mus musculus; assay: In vivo effect on PPAR signaling in tyloxapol-induced Kunming mouse model of hyperlipidemia assessed as increase in PPARalpha expression in liver at 50 to 100 mg/kg, po measured after 24 hrs by Western blot analysis; format: functional, organism-based; conditions: dose 50-100 mg/kg
[26] = system: Mus musculus; assay: Hypolipidemic activity in tyloxapol-induced Kunming mouse model of hyperlipidemia assessed as liver index at 50 mg/kg, po measured after 24 hrs (reference value: 65.00 +/- 0.87); format: functional
[27] = system: Mus musculus; assay: Hypolipidemic activity in tyloxapol-induced Kunming mouse model of hyperlipidemia assessed as epididymis white adipose tissue index at 100 mg/kg, po measured after 24 hrs (reference value: 23.43 +/- 3.10); format: functional
[28] = system: 3T3-L1; assay: Hypolipidemic activity in mouse 3T3-L1 mature adipocytes assessed as reduction in lipid content at 5 uM by Oil Red O staining based assay relative to control; format: functional; set-up: scale not given: the % may be the effect or the level left
[29] = system: Mus musculus; assay: Hypolipidemic activity in tyloxapol-induced Kunming mouse model of hyperlipidemia assessed as reduction in liver LDL-C level administered orally measured after 24 hrs; format: functional, organism-based
[30] = system: 3T3-L1; assay: Hypolipidemic activity in mouse 3T3-L1 mature adipocytes assessed as reduction in lipid content at 1 uM by Oil Red O staining based assay relative to control; format: functional; set-up: scale not given: the % may be the effect or the level left
[31] = system: Mus musculus; assay: In vivo effect on PPAR signaling in tyloxapol-induced Kunming mouse model of hyperlipidemia assessed as increase in PPARbeta expression in liver at 50 to 100 mg/kg, po measured after 24 hrs by Western blot analysis; format: functional, organism-based; conditions: dose 50-100 mg/kg
[32] = system: Mus musculus; assay: In vivo induction of AMPK in tyloxapol-induced Kunming mouse model of hyperlipidemia assessed as decrease in FAS expression in liver at 50 to 100 mg/kg, po measured after 24 hrs by Western blot analysis; format: functional, organism-based; conditions: dose 50-100 mg/kg
[33] = system: HepG2; assay: Activation of AMPK in oleic, palmitic, linoleic and arachidonic acid 29:47:18:6 (v/v)-induced human HepG2 cells assessed as increase in ACC phosphorylation at 1 uM by Western blot analysis relative to control

CC(C)=CCC/C(C)=C/Cc1c(O)cc(O)c(C(=O)/C=C/c2ccc(O)cc2)c1O
Activity [1]: Active
Activity [2]: Active
Activity [3]: Active
Activity [4]: Dose-dependent effect
Activity_index [5]: 2.62
Activity [6]: Dose-dependent effect
Activity [7]: Active
Activity [8]: 42.9%
Activity_index [9]: 2.8
Activity [10]: 66.31%
Activity [11]: Active
Activity_index [12]: 9.29
Activity [13]: 83.91%
Activity [14]: Active
Activity [15]: Active
Activity_index [16]: 14.85
Activity [17]: Dose-dependent effect
Activity [18]: Active
Activity [19]: Active
Activity [20]: 49%
Activity [21]: Dose-dependent effect
Activity [22]: Active
Activity [23]: Dose-dependent effect
Activity [24]: Active
Activity [25]: Active
Activity_index [26]: 55.64
Activity_index [27]: 12.35
Activity [28]: 71.33%
Activity [29]: Dose-dependent effect
Activity [30]: 39.16%
Activity [31]: Active
Activity [32]: Active
Activity [33]: 31.7%

From ChEMBL document CHEMBL4765421, “Synthesis of natural 3'-Prenylchalconaringenin and biological evaluation of ameliorating non-alcoholic fatty liver disease and metabolic syndrome” (Eur J Med Chem, 2020)
